Laboratory results as given in ChEMBL document CHEMBL1743201, “Casarett and Doull's Toxicology The Basic Science of Poisons, 7th edition” (2008).

Tests used:
Format in all cases: ADME
[1] = target: T1, Glutathione S-transferase A4 (Homo sapiens, UniProt O15217); assay: Substrates for human cytosolic glutathione transferase GSTA4
T1 sequence (O15217 whole entry): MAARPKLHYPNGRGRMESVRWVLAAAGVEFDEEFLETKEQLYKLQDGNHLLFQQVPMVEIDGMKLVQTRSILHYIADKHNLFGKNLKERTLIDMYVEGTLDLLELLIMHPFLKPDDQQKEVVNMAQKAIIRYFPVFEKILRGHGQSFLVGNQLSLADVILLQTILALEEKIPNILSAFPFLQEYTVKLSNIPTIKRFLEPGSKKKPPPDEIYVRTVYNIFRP

[2] = target: T2, UDP-glucuronosyltransferase 2B17 (Homo sapiens, UniProt O75795); assay: Substrate of human UDP-glucuronosyltransferase UGT2B17
T2 sequence (O75795 whole entry): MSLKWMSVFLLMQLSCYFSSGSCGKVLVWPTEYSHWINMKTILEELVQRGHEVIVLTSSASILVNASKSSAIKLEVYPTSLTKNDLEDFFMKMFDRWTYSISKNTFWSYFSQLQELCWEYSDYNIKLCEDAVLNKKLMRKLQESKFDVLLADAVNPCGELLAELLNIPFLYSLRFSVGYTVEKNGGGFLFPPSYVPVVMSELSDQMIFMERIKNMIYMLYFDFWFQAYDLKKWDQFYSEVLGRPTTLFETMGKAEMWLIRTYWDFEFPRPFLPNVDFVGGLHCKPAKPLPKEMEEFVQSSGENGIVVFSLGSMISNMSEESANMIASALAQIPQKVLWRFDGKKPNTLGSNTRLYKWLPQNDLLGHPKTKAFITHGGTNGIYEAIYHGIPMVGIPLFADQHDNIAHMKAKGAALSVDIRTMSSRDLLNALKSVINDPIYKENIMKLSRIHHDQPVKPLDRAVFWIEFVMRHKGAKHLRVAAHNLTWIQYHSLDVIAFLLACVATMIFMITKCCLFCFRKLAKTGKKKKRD

[3] = target: T3, Maleylacetoacetate isomerase (Homo sapiens, UniProt O43708); assay: Substrates for human cytosolic glutathione transferase GSTZ1
T3 sequence (O43708 whole entry): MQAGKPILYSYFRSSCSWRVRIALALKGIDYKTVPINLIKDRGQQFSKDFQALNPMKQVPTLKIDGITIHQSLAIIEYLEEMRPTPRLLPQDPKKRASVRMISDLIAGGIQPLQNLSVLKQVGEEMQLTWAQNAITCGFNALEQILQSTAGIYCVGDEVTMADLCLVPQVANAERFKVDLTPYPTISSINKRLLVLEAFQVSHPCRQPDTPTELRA

[4] = target: T4, UDP-glucuronosyltransferase 2B4 (Homo sapiens, UniProt P06133); assay: Substrate of human UDP-glucuronosyltransferase UGT2B4
T4 sequence (P06133 whole entry): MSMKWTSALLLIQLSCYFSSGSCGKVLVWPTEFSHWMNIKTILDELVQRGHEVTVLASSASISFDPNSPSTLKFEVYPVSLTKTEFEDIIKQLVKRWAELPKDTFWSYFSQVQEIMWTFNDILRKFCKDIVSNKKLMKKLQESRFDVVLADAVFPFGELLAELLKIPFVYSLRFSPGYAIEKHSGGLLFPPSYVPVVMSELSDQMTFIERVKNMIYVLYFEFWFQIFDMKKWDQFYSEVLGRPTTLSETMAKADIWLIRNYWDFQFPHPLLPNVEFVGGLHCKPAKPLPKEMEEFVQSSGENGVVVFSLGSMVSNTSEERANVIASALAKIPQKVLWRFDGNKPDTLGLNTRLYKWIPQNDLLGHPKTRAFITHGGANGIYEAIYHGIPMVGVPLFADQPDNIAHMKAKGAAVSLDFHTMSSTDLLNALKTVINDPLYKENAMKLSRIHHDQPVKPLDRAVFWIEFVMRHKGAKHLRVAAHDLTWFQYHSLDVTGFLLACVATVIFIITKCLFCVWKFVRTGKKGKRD

Cytochrome P450 2C8 [5] = target: T5, Cytochrome P450 2C8 (Homo sapiens, UniProt P10632); assay: Clinically relevant substrates of human liver microsomal P450 enzymes, isoform CYP2C8; conditions: microsomes
T5 sequence (P10632 whole entry): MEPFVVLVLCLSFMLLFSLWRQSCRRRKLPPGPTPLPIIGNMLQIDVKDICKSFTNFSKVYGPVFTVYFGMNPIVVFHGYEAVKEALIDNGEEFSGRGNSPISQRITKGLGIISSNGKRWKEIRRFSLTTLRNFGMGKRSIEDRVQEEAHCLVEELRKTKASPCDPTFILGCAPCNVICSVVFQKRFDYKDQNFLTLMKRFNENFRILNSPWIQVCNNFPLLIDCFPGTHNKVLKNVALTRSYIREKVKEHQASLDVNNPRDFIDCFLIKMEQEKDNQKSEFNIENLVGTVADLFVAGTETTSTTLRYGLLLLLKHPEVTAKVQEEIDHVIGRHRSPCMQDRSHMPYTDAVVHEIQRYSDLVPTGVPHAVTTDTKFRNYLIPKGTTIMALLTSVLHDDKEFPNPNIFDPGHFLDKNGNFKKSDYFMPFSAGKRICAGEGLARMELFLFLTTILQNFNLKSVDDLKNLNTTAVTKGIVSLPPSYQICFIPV

Cytochrome P450 2C8 [6] = target: T5, Cytochrome P450 2C8; assay: Clinically relevant inhibitors of human liver microsomal P450 enzymes, isoform CYP2C8; conditions: microsomes
[7] = target: T6, UDP-glucuronosyltransferase 1A9 (Homo sapiens, UniProt O60656); assay: Substrate of human UDP-glucuronosyltransferase UGT1A9
T6 sequence (O60656 whole entry): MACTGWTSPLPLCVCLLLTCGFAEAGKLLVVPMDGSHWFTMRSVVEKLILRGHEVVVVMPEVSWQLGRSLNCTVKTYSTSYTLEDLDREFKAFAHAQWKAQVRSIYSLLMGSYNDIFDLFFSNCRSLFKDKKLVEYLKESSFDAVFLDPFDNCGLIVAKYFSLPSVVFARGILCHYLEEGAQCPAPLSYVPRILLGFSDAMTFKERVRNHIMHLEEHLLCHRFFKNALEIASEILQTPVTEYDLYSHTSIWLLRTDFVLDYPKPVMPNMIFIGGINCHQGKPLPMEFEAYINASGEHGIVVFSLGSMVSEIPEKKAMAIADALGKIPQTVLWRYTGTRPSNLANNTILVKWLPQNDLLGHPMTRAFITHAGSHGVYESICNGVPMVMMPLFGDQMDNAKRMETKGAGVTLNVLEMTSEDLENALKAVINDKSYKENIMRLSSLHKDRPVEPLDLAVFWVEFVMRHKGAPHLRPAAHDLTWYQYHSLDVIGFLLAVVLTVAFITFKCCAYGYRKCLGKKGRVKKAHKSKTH

Row | Activity [2] | Activity (Cytochrome P450 2C8 [5]) | SMILES | also measured
1 | Substrate |  | O=c1c(O)c(-c2ccccc2)oc2cc(O)cc(O)c12 [GALANGIN] | 
2 |  | Substrate | CCOc1cc(CC(=O)N[C@@H](CC(C)C)c2ccccc2N2CCCCC2)ccc1C(=O)O [REPAGLINIDE] | 
3 | Substrate |  | COc1cc2ccc(=O)oc2cc1O [SCOPOLETIN] | Activity [7]: Substrate

The next lines start with the molecule.

Row | SMILES | Activity [2] | Activity (Cytochrome P450 2C8 [5]) | also measured
4 | C=C(CC)C(=O)c1ccc(OCC(=O)O)c(Cl)c1Cl [ETHACRYNIC ACID] |  |  | Activity [1]: Substrate
5 | C=CCc1ccc(O)c(OC)c1 [EUGENOL] | Substrate |  | 
6 | O=C(O)CF [FLUOROACETATE] |  |  | Activity [3]: Substrate
7 | C[C@H](CCC(=O)O)[C@H]1CC[C@H]2[C@@H]3C[C@H](O)[C@@H]4C[C@H](O)CC[C@]4(C)[C@H]3CC[C@]12C [HYODEOXYCHOLIC_ACID] |  |  | Activity [4]: Substrate
8 | O=C(O)/C=C\C(=O)CC(=O)CC(=O)O [MALEYLACETOACETATE] |  |  | Activity [3]: Substrate
9 | CC(=O)O[C@H]1C(=O)[C@@]2(C)[C@H]([C@H](OC(=O)c3ccccc3)[C@]3(O)C[C@H](OC(=O)[C@H](O)[C@@H](NC(=O)c4ccccc4)c4ccccc4)C(C)=C1C3(C)C)[C@]1(OC(C)=O)CO[C@@H]1C[C@@H]2O [PACLITAXEL] |  | Substrate | 
10 | CN(CCOc1ccc(CC2SC(=O)NC2=O)cc1)c1ccccn1 (configuration not stated) [ROSIGLITAZONE] |  | Substrate | Activity (Cytochrome P450 2C8 [6]): Inhibitor
